Laboratory results as given in patent US3932664A, “Substituted phenoxyalkyl quaternary ammonium compounds as antiarrhythemic agents” (priority 1974, dated 1976).

Columns and labels:
[1] = system: multifocal ventricular arrhythmias induced by n-hexane and epinephrine in dogs; assay: protection against multifocal ventricular arrhythmias induced by n-hexane and epinephrine in dogs; type: in vivo; settings: dog, intravenous
Text: [2-(4-Amino-2,6-dibromophenoxy)ethyl]dimethyl-(2-methylallyl)ammonium chloride is employed to alleviate multifocal ventricular arrhythmias induced by administration of n-hexane and epinephrine. In these operations, dogs are anesthetized by intravenous administration of 30 milligrams of pentobarbital sodium per kilogram. Transient ventricular arrhythmias are induced by a modification of the method of Garb and Chenowith, J. Pharmacol. Exp. Ther. 94; 12 (1948) in which the heart is sensitized by intratracheal injection of 0.04 milliliter of n-hexane per kilogram, followed in 15 seconds by rapid intravenous administration of 1-epinephrine bitrate at a dosage rate of 10 micrograms per kilogram. Such procedure produces a transient arrhythmia lasting about 10 seconds. Duration of protection by a test compound is evaluated by repeating the n-hexane and epinephrine challenge periodically and monitoring electrocardiogram and arterial blood pressure. […] When the same compound is administered at a dosage rate of 2 milligrams per kilogram, the duration of protection is found to be greater than 2 hours.
In similar operations, dosages of 5 to 10 milligrams per kilogram are found to be required to obtain similar antiarrhythmic effects when the known antiarrhythmic agent, quinidine sulfate, is employed as a test compound.

[2] = system: electrically induced ventricular fibrillation in dogs; assay: threshold for electrically induced ventricular fibrillation in electrically paced dogs; type: in vivo, dog; settings: intravenous
[3] = system: arrhythmia after experimental coronary artery occlusion in dogs; assay: abnormal complexes after experimental occlusion of the anterior descending coronary artery in dogs; type: in vivo; settings: dog
Description: An experimental occlusion of the anterior descending coronary artery is produced in dogs according to the method of Harris, Circulation 1, 1318 (1950). Following surgery the animals are given a penicillin-streptomycin preparation and allowed to recover for 18-24 hours. The animals are given 3 milligrams per kilogram of morphine sulfate as an analgetic and sedative to allow handling. Electrocardiograms are recorded both before and after administration of [2-([…])ethyl]dimethyl-(2-methylallyl)ammonium chloride to the test animals. The incidence of abnormal complexes (premature ventricular contractions and atrioventricular nodal beats) per minute is recorded as a percentage of total beats per minute. In one such operation the test compound is administered by intravenous infusion at rates of 1, 2, 2 and 2 milligrams per kilogram at intervals of 10 to 15 minutes. […] Following the last infusion of test compound the heartbeat rate is observed to have decreased from a rate of over 160 beats per minute prior to the first infusion to about 90-100 beats per minute. The incidence of ectopic beats at this time has decreased from a pre-treatment level of 100 percent abnormal beats per minute to below 60 percent, reaching zero (100 percent normal beats) within about 10 minutes after the last infusion. The lower heartbeat rate and low incidence of abnormal beats (generally 0 to 20 percent of the total beats per minute are abnormal) is found to persist for 2 hours following the last infusion of test compound, at which time the experiment is terminated.
In similar operations, the same test compound is infused at dosages of 1, 2 and 4 milligrams per kilogram at intervals over a forty minute period. Prior to infusion the incidence of abnormal beats is 100 percent. […] The incidence of abnormal beats is found to remain at zero with occasional brief periods of slight arrhythmia (2-5 percent abnormal beats) for 2.5 hours following the last dosage of the test compound, when recording is terminated.
In a similar operation the [2-([…])ethyl]dimethyl(2-methylallyl)ammonium chloride is administered orally in gelatin capsules. The test compound is administered in multiple dosages of 30, 30 and 50 milligrams per kilogram over a period of 150 minutes. […] Antiarrhythmic effects continue to be observed until the recording is terminated 140 minutes after the last dose of test compound.

[4] = blood and heart levels in rabbits after oral and intravenous administration; type: in vivo; settings: rabbit
[5] = acute oral toxicity in rats; settings: rat, in vivo, single oral dose
Description: An aqueous solution of [2-(4-amino-2,6-dibromophenoxy)ethyl]dimethyl (2-methylallyl)ammonium chloride is administered orally to several groups of male and female Sprague-Dawley derived rats and male and female Swiss mice (Cox strain). The compound is administered as single oral dosages in varying amounts, and the animals are held to assess toxicity twenty-four hours after administration of the compound.

[6] = iv infusion, following the first infusion (1 mg/kg)

C=C(C)C[N+](C)(C)CCOc1c(Br)cc(N)cc1Br.[Cl-] [Example 1, [2-(4-amino-2,6-dibromophenoxy)ethyl]-dimethyl(2-methylallyl)ammonium chloride]
duration of protection ([1]; 2 mg/kg): greater than 2 hours | duration of antiarrhythmic effect ([1]; one mg/kg): about 1 hour | protection against the arrhythmias ([1]; one mg/kg): excellent protection | increase in threshold for electrically induced ventricular fibrillation [2]: substantial increases | time after last infusion to substantially complete conversion to sinus rhythm ([3]; infused 1, 2 and 4 mg/kg over forty minutes): eight | conversion to sinus rhythm ([3]; infused 1, 2 and 4 mg/kg over forty minutes, incidence of abnormal beats 100 percent before): substantially complete conversion to sinus rhythm | time for which incidence of abnormal beats remains at zero (with occasional slight arrhythmia) ([3]; infused 1, 2 and 4 mg/kg, following last dosage, recording then terminated): ≥ 2.5 h | incidence of abnormal beats ([3]; infused 1, 2 and 4 mg/kg, for 2.5 hours following the last dosage): zero | anti-arrhythmic effects on resumption of recording ([3]; infused 1, 2 and 4 mg/kg, recording resumed 215 minutes later): significant anti-arrhythmic effects are still exhibited | abnormal beats during occasional brief periods of slight arrhythmia ([3]; infused 1, 2 and 4 mg/kg, within 2.5 hours following the last dosage): 2-5% | time after last infusion to zero ectopic beats (100 percent normal beats) ([3]; iv 1, 2, 2 and 2 mg/kg): ≤ 10 min | persistence of lower heartbeat rate and low incidence of abnormal beats ([3]; iv 1, 2, 2 and 2 mg/kg, following last infusion, experiment terminated at that time): ≥ 2 h | heartbeat rate ([3]; iv 1, 2, 2 and 2 mg/kg, following last infusion, over 160 beats per minute prior to first infusion, in beats/min): 90-100 | incidence of ectopic beats (percent abnormal beats per minute) ([3]; iv 1, 2, 2 and 2 mg/kg, following last infusion, pre-treatment 100 percent): below 60% | incidence of ectopic beats ([3]; iv 1, 2, 2 and 2 mg/kg, within about 10 minutes after the last infusion): zero | change in percentage of abnormal beats per minute [3, 6]: concomitant decrease | heart beat rate change [3, 6]: marked decrease | antiarrhythmic effects of the second and third doses ([3]; oral 30, 30 and 50 mg/kg): further and more consistent antiarrhythmic effects | time after last dose to periods with less than 10 percent abnormal beats ([3]; oral 30, 30 and 50 mg/kg): about 25 minutes | abnormal beats (periods in electrocardiogram) ([3]; oral 30, 30 and 50 mg/kg, beginning about 25 minutes after last dose, interspersed with occasional arrhythmia): less than 10% | time after last dose over which antiarrhythmic effects continue to be observed ([3]; oral 30, 30 and 50 mg/kg, recording then terminated): ≥ 140 min | time after first dosage to periods of reduced frequency of abnormal heart beats ([3]; oral gelatin capsules, 30, 30 and 50 mg/kg over 150 minutes): 10 min | oral absorption [4]: indicate oral absorption | LD50 at 24 h ([5]; female rats): 725 mg/kg | LD50 at 24 h ([5]; male rats): 758 mg/kg
